Among the data in patent publication US11179397B2, “Imidazopyrimidine derivatives” (Gilead Sciences, Inc., priority 2018, dated 2021) are IC50 and EC50 values, retold here.

Experiment [1] concerns the target SHP-2 full length protein (Homo sapiens (Human), UniProt Q06124). Description: SHP-2 biochemical DiFMUP pseudosubstrate-fluorogenic assay. Conditions: 0.2 nM SHP-2, 1 μM IRS-1 activator peptide, 50 μM DiFMUP; read-out: SHP2 IC50. The essentials: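 In-house recombinant full-length SHP-2 preincubated 90 min at room temperature with compounds (1:3 series, 10,000–0.005 nM), then DiFMUP substrate added at 50 μM final for 30 min more. Fluorescence normalised to DMSO wells (100%) and IC50 derived by curve fitting.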

For experiment [2], the system named is NCI-H358 cells. The experiment can be described thus: NCI-H358 3D tumor spheroid growth inhibition. It counts as cell-based. The note with it: Homo sapiens, NCI-H358, 168 h, 3D spheroids, 7 days, 3D CellTiter Glo; cellular IC50 designated EC50; read-out: H358 EC50. The essentials:
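Cells seeded at 1000/well in ultra-low-attachment plates at 37 °C, 5% CO2 to form spheroids, then incubated a further 7 days with compounds. Viability by 3D CellTiter Glo luminescence; % inhibition versus DMSO wells, with normalized cellular IC50 reported as EC50.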
In general terms: Cellular ATP, detected with luciferase, serves as a proxy for viable cell number.

Sequence of SHP-2 full length protein (Q06124 whole entry): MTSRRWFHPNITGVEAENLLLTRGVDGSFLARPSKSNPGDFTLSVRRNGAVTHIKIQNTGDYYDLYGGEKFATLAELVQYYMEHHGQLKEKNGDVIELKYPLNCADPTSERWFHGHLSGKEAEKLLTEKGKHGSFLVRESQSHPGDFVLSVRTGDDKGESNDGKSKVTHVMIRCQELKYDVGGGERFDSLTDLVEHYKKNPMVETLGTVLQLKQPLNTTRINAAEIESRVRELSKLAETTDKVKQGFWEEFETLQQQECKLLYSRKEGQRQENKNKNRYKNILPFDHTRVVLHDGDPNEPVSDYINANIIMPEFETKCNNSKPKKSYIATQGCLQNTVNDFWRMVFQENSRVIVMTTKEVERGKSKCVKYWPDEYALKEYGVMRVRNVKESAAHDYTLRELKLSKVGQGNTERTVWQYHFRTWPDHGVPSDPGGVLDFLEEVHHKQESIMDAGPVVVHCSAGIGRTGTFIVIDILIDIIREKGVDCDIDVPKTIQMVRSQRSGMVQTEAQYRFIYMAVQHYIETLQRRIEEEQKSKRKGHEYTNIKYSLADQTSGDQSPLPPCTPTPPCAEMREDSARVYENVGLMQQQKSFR

Consider `N[C@@H]1c2ccccc2CC12CCN(c1ncc(Sc3ccnc4ccsc34)c3nccn13)CC2` [Example 139, (S)-1′-(8-(thieno[3,2-b]pyridin-7-ylthio)imidazo[1,2-c]pyrimidin-5-yl)-1,3-dihydrospiro[indene-2,4′-piperidin]-1-amine], for which the IC50 in experiment [1] amounted to 1.7 nM. Besides, the EC50 in experiment [2] turned out to be 8.9 nM.
In the same order, the values of `N[C@@H]1c2ccccc2CC12CCN(c1ncc(Sc3cccc4cnsc34)c3nccn13)CC2` [Example 140, (S)-1′-(8-(benzo[d]isothiazol-7-ylthio)imidazo[1,2-c]pyrimidin-5-yl)-1,3-dihydrospiro[indene-2,4′-piperidin]-1-amine] are 2.6 nM and 18 nM.
For `CSc1ccccc1Sc1cnc(N2CCC3(CC2)Cc2ccccc2[C@H]3N)n2ccnc12` [Example 141, (S)-1′-(8-((2-(methylthio)phenyl)thio)imidazo[1,2-c]pyrimidin-5-yl)-1,3-dihydrospiro[indene-2,4′-piperidin]-1-amine], in that order: 1.8 nM and 30 nM.
For `CCSc1ccccc1Sc1cnc(N2CCC3(CC2)Cc2ccccc2[C@H]3N)n2ccnc12` [Example 142, (S)-1′-(8-((2-(ethylthio)phenyl)thio)imidazo[1,2-c]pyrimidin-5-yl)-1,3-dihydrospiro[indene-2,4′-piperidin]-1-amine], in that order: 4 nM and 60 nM.
As to `CC(C)Sc1ccccc1Sc1cnc(N2CCC3(CC2)Cc2ccccc2[C@H]3N)n2ccnc12` [Example 143, (S)-1′-(8-((2-(isopropylthio)phenyl)thio)imidazo[1,2-c]pyrimidin-5-yl)-1,3-dihydrospiro[indene-2,4′-piperidin]-1-amine], the IC50 in experiment [1] came out at 11 nM. The EC50 in experiment [2] stood at 260 nM.
For `N[C@@H]1c2ccccc2CC12CCN(c1ncc(Sc3ccnc4cccnc34)c3nccn13)CC2` [Example 144, (S)-1′-(8-((1,5-naphthyridin-4-yl)thio)imidazo[1,2-c]pyrimidin-5-yl)-1,3-dihydrospiro[indene-2,4′-piperidin]-1-amine], in that order: 3.6 nM and 4.4 nM.
As to `N[C@@H]1c2ccccc2CC12CCN(c1ncc(Sc3ccnc4ccccc34)c3nccn13)CC2` [Example 145], in experiment [1], the IC50 turned out to be 2.8 nM. The half-maximal effective concentration (EC50) in experiment [2] was 20 nM.
In the same order, the values of `N[C@@H]1c2cccnc2CC12CCN(c1ncc(Sc3cccc(Cl)c3Cl)c3nccn13)CC2` [Example 146, (S)-1′-(8-((2,3-dichlorophenyl)thio)imidazo[1,2-c]pyrimidin-5-yl)-5,7-dihydrospiro[cyclopenta[b]pyridine-6,4′-piperidin]-5-amine] are 1.7 nM and 15 nM.
For `Nc1nccc(Sc2cnc(N3CCC4(CC3)Cc3ncccc3[C@H]4N)n3ccnc23)c1Cl` [Example 147, (S)-1′-(8-((2-amino-3-chloropyridin-4-yl)thio)imidazo[1,2-c]pyrimidin-5-yl)-5,7-dihydrospiro[cyclopenta[b]pyridine-6,4′-piperidin]-5-amine], in that order: 4.8 nM and 5.5 nM.
For `N[C@H]1c2cccnc2CC12CCN(c1ncc(Sc3cccc(Cl)c3Cl)c3nccn13)CC2` [Example 148, (R)-1′-(8-((2,3-dichlorophenyl)thio)imidazo[1,2-c]pyrimidin-5-yl)-5,7-dihydrospiro[cyclopenta[b]pyridine-6,4′-piperidin]-5-amine], in that order: 41 nM and 132 nM.
Regarding `Nc1nccc(Sc2cnc(N3CCC4(CC3)Cc3ncccc3[C@@H]4N)n3ccnc23)c1Cl` [Example 149, (R)-1′-(8-((2-amino-3-chloropyridin-4-yl)thio)imidazo[1,2-c]pyrimidin-5-yl)-5,7-dihydrospiro[cyclopenta[b]pyridine-6,4′-piperidin]-5-amine], the IC50 in experiment [1] was determined as 75 nM. Besides, the EC50 in experiment [2] was found to be 101 nM.

Usually IC50 stands for the concentration at which inhibition is half-maximal. Broadly, the EC50 is the concentration that produces a half-maximal response.
